In ChEMBL document CHEMBL1143953, “Novel 2-phenylquinolin-7-yl-derived imidazo[1,5-a]pyrazines as potent insulin-like growth factor-I receptor (IGF-IR) inhibitors” (Bioorg Med Chem, 2008):

Assays:
[1] = molecular target: Insulin-like growth factor 1 receptor (Homo sapiens, UniProt P08069)
Description: Inhibition of human recombinant full length IGF1R expressed in mouse 3T3 cells

[2] = molecular target: Cytochrome P450 3A4 (Homo sapiens, UniProt P08684); experiment: Inhibition of CYP3A4; format: ADME
Sequence of Cytochrome P450 3A4 (P08684 whole entry): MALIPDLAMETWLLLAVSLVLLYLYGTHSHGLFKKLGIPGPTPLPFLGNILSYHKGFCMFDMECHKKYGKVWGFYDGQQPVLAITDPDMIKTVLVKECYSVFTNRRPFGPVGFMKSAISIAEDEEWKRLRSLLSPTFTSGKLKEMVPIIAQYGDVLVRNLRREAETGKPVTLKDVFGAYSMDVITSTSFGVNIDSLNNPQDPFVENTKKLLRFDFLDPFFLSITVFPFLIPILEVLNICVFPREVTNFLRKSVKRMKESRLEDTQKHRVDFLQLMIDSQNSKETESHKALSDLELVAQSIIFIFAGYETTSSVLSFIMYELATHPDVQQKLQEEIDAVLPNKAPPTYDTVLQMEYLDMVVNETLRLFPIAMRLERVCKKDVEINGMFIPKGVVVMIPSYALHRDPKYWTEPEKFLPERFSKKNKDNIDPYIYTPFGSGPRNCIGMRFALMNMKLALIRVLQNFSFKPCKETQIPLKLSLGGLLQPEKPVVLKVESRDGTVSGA

Sequence of Insulin-like growth factor 1 receptor (P08069 31-736 limits assumed): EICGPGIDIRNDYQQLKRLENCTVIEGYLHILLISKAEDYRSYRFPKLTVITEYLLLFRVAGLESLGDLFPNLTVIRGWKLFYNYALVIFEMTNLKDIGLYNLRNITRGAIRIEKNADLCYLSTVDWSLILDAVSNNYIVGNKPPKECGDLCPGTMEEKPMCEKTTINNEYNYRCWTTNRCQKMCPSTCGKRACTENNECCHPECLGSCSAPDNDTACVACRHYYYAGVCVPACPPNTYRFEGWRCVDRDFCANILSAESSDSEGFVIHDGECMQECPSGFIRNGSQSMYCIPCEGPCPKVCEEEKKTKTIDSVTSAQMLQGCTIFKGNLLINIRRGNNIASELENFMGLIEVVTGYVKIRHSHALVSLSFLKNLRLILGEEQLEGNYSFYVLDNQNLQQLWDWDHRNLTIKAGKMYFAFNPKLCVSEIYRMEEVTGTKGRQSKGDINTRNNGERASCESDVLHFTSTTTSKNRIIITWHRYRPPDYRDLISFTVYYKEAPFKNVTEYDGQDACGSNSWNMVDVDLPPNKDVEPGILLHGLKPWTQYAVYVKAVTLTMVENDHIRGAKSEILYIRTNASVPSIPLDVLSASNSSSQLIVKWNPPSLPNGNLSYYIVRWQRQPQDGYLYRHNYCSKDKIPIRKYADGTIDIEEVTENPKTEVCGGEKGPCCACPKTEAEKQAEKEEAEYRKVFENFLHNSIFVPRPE
Sequence of Insulin-like growth factor 1 receptor (P08069 741-1367 limits assumed): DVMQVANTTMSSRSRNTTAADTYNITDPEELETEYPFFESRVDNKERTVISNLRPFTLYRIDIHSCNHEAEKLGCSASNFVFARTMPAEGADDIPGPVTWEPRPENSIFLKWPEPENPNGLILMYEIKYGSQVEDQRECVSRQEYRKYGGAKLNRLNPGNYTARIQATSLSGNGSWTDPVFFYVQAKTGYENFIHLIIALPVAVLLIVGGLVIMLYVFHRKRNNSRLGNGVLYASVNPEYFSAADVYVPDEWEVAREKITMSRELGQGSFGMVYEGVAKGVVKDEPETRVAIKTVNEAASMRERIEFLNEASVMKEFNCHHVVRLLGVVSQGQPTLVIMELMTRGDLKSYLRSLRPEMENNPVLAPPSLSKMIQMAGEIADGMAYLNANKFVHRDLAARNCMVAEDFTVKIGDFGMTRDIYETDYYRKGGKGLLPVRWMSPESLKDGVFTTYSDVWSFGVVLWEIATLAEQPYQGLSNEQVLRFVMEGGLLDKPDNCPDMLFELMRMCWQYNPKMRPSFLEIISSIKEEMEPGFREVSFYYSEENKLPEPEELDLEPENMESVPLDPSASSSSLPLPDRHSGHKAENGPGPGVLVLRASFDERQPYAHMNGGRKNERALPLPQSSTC

IC50 [1]	IC50 [2]	SMILES
0.042 µM	17 µM	Nc1nccn2c1c(-c1ccc3ccc(-c4ccccc4)nc3c1)nc2[C@H]1C[C@H](CN2CCC2)C1
–	3.4 µM	Nc1nccn2c(C3CCC3)nc(-c3ccc4ccc(-c5ccccc5)nc4c3)c12
–	> 20 µM	Nc1nccn2c1c(-c1ccc3ccc(-c4ccccc4)nc3c1)nc2[C@H]1C[C@H](CN2CCOCC2)C1
–	17 µM	Nc1nccn2c1c(-c1ccc3ccc(-c4ccccc4)nc3c1)nc2[C@H]1C[C@@H](N2CCCC2)C1
